Reference: patent US8889878B2, “Haloalky-substituted amides as insecticides and acaricides” (Bayer CropScience AG, priority 2009, dated 2014)

Columns and labels:
[1] = tested on: armyworm (Spodoptera frugiperda); experiment: Spodoptera frugiperda test (SPODFR spray treatment), Example 15; type: in vivo; details: maize leaf discs sprayed, after 7 days
Protocol: Spodoptera frugiperda Test (SPODFR Spray Treatment)
• Solvent: 78.0 parts by weight of acetone • 1.5 parts by weight of dimethylformamide • Emulsifier: 0.5 part by weight of alkylaryl polyglycol ether
To prepare an appropriate active ingredient formulation, 1 part by weight of active ingredient is mixed with the stated amounts of solvent and emulsifier, and the concentrate is diluted with emulsifier-containing water to the desired concentration. Leaf discs from maize (Zea mays) are sprayed with an active ingredient formulation of the desired concentration and, after drying, populated with caterpillars of the armyworm (Spodoptera frugiperda).
After 7 days, the efficacy in % is determined. 100% means that all caterpillars were killed; 0% means that no caterpillars were killed.

[2] = logP by HPLC on reverse-phase column (EEC Directive 79/831 Annex V.A8); type: physicochemical
Protocol: The logP values reported in the above Tables and Preparation Examples were determined according to EEC Directive 79/831 Annex V.A8 by HPLC (High Performance Liquid Chromatography) on a reverse-phase column (C18). Temperature 43° C.

Boophilus microplus = Boophilus microplus test (BOOPMI injection), Example 11; type: in vivo; details: application rate 20 μg/animal, injected into abdomen, after 7 days
Protocol: Boophilus microplus Test (BOOPMI Injection) • Solvent: dimethyl sulphoxide To prepare an appropriate active ingredient formulation, 10 mg of active ingredient are mixed with 0.5 ml of solvent and the concentrate is diluted with solvent to the desired concentration. The active ingredient solution is injected into the abdomen (Boophilus microplus), and the animals are transferred to dishes and stored in a climate-controlled room. The efficacy was assessed by the number of fertile eggs laid. After 7 days, the efficacy in % is determined. 100% means that none of the ticks has laid any fertile eggs.

[3] = HPLC, C18 reverse phase, 43° C., acidic range pH 2.7, calibration with alkan-2-ones
[4] = HPLC-MS, HPLC on reverse-phase column

SMILES	efficacy in % ([1]; application rate 100 g/ha)	logP ([2]; HPLC-MS)	also measured
CCOCn1c(C(=O)NC(c2cccc(C(F)(F)F)c2)C(F)(F)F)cc2cc(C(=O)NC3CC3)c(Cl)cc21 (racemic) [Ic-27]	100%	–	logP [2, 3]: HPLC-MS: logP = 3.81; mass
C=CCn1c(C(=O)NC(c2cccc(C(F)(F)F)c2)C(F)(F)F)cc2cc(C(=O)NC3CC3)c(Cl)cc21 (racemic) [Ic-29]	100%	–	logP [2, 3]: HPLC-MS: logP = 3.86; mass
O=C(/C=C/c1ccc(C(=O)NCc2ccccn2)cc1)NC(c1cccc(C(F)(F)F)c1)C(F)(F)F (stereo not drawn) [Ia-7]	–	HPLC-MS: logP = 2.45; mass	efficacy in % ([1]; application rate 500 g/ha): 83%
N#Cc1cc(/C=C/C(=O)NC(c2cc(Cl)ccc2Cl)C(F)(F)F)ccc1-n1cncn1 (stereo not drawn) [Ia-15]	–	HPLC-MS: logP = 3.19; mass	efficacy in % ([1]; application rate 500 g/ha): 83%
CC(NC(=O)c1ccc(/C=C/C(=O)NC(c2cccc([N+](=O)[O-])c2)C(F)(F)F)cc1C(F)(F)F)C(F)(F)F (stereo not drawn) [Ia-28]	–	HPLC-MS: logP = 3.83; mass	efficacy in % ([1]; application rate 500 g/ha): 83%
O=C(/C=C/c1ccc(C(=O)Nc2ncccn2)c(C(F)(F)F)c1)NC(c1cccc(C(F)(F)F)c1)C(F)(F)F (stereo not drawn) [Ia-119]	100%	HPLC-MS: logP = 3.11; mass	–
O=C(/C=C/c1ccc(C(=O)Nc2cc(Cl)ccn2)c(C(F)(F)F)c1)NC(c1cccc(C(F)(F)F)c1)C(F)(F)F (stereo not drawn) [Ia-121]	–	HPLC-MS: logP = 4.3; mass	efficacy in % (fertile eggs laid) (Boophilus microplus): 100%
Cn1ccc(NC(=O)c2ccc(/C=C/C(=O)NC(c3cccc(C(F)(F)F)c3)C(F)(F)F)cc2C(F)(F)F)n1 (stereo not drawn) [Ia-124]	100%	HPLC-MS: logP = 3.28; mass	efficacy in % (fertile eggs laid) (Boophilus microplus): 100%
O=C(/C=C/c1ccc(C(=O)Nc2ccncn2)c(C(F)(F)F)c1)NC(c1cccc(C(F)(F)F)c1)C(F)(F)F (stereo not drawn) [Ia-125]	100%	HPLC-MS: logP = 3.35; mass	efficacy in % (fertile eggs laid) (Boophilus microplus): 100%
O=C(/C=C/c1ccc(C(=O)NCc2cc(Cl)ccn2)c(C(F)(F)F)c1)NC(c1cccc(C(F)(F)F)c1)C(F)(F)F (stereo not drawn) [Ia-126]	–	HPLC-MS: logP = 3.68; mass	efficacy in % (fertile eggs laid) (Boophilus microplus): 100%
O=C(/C=C/c1ccc(-n2cccn2)c(C(F)(F)F)c1)NC(c1cccc(C(F)(F)F)c1)C(F)(F)F (stereo not drawn) [Ia-135]	–	HPLC-MS: logP = 3.95; mass	efficacy in % (fertile eggs laid) (Boophilus microplus): 100%
O=C(/C=C/c1ccc(C(=O)Nc2ncc(Cl)cn2)c(C(F)(F)F)c1)NC(c1cccc(C(F)(F)F)c1)C(F)(F)F (stereo not drawn) [Ia-137]	100%	HPLC-MS: logP = 3.62; mass	–
CCC(C)NC(=O)c1ccc(/C=C/C(=O)NC(c2cccc(C(F)(F)F)c2)C(F)(F)F)cc1C(F)(F)F (stereo not drawn) [Ia-144]	–	HPLC-MS: logP = 3.84; mass	efficacy in % (fertile eggs laid) (Boophilus microplus): 100%
O=C(/C=C/c1ccc(C(=O)NCC=CCl)c(C(F)(F)F)c1)NC(c1cccc(C(F)(F)F)c1)C(F)(F)F (stereo not drawn) [Ia-145]	–	HPLC-MS: logP = 3.69; mass	efficacy in % (fertile eggs laid) (Boophilus microplus): 100%
NC(=O)c1ccc(/C=C/C(=O)NC(c2cccc(C(F)(F)F)c2)C(F)(F)F)cc1Cl (stereo not drawn) [Ia-157]	–	HPLC-MS: logP = 2.75; mass	efficacy in % (fertile eggs laid) (Boophilus microplus): 100%
O=C(/C=C/c1ccc(C(=O)NCc2nccs2)c(Cl)c1)NC(c1cccc(C(F)(F)F)c1)C(F)(F)F (stereo not drawn) [Ia-159]	–	HPLC-MS: logP = 3.13; mass	efficacy in % (fertile eggs laid) (Boophilus microplus): 100%
O=C(/C=C/c1ccc(C(=O)Nc2cc(Cl)ccn2)c(Cl)c1)NC(c1cccc(C(F)(F)F)c1)C(F)(F)F (stereo not drawn) [Ia-165]	100%	HPLC-MS: logP = 4,23; mass	–
CC(C#N)(NC(=O)c1ccc(/C=C/C(=O)NC(c2cccc(C(F)(F)F)c2)C(F)(F)F)cc1C(F)(F)F)C1CC1 (stereo not drawn) [Ia-172]	100%	HPLC-MS: logP = 3.74; mass	–
CC(NC(=O)c1ccc(/C=C/C(=O)NC(c2cccc(C(F)(F)F)c2)C(F)(F)F)cc1Br)C(F)(F)F (stereo not drawn) [Ia-176]	100%	HPLC-MS: logP = 3.78; mass	–
C#CC(C)NC(=O)c1ccc(/C=C/C(=O)NC(c2cccc(C(F)(F)F)c2)C(F)(F)F)cc1Br (stereo not drawn) [Ia-178]	100%	HPLC-MS: logP = 3.44; mass	–
O=C(/C=C/c1ccc(C(=O)Nc2ncccc2Cl)c(Cl)c1)NC(c1cccc(C(F)(F)F)c1)C(F)(F)F (stereo not drawn) [Ia-183]	83%	HPLC-MS: logP = 3.44; mass	–
O=C(/C=C/c1ccc(C(=O)Nc2cccnn2)c(C(F)(F)F)c1)NC(c1cccc(C(F)(F)F)c1)C(F)(F)F (stereo not drawn) [Ia-225]	100%	HPLC-MS: logP = 3.27; mass	–

SMILES	efficacy in % ([1]; application rate 100 g/ha)	logP ([2]; HPLC-MS)	also measured
O=C(/C=C/c1ccc(C(=O)Nc2cnc(Br)cn2)c(C(F)(F)F)c1)NC(c1cccc(C(F)(F)F)c1)C(F)(F)F (stereo not drawn) [Ia-226]	100%	HPLC-MS: logP = 4.15; mass	–
O=C(/C=C/c1ccc(C(=O)NC2CC2)c(Cl)c1)NC(c1cccc(Cl)c1)C(F)(F)F (stereo not drawn) [Ia-235]	–	HPLC-MS: logP = 3.03; mass	efficacy in % ([1]; application rate 500 g/ha): 83%
CCOC1(NC(=O)c2ccc(/C=C/C(=O)NC(c3cccc(C(F)(F)F)c3)C(F)(F)F)cc2Br)CC1 (stereo not drawn) [Ia-237]	–	HPLC-MS: logP = 3.42; mass	efficacy in % (fertile eggs laid) (Boophilus microplus): 100%
CC(=O)NCc1ccc(/C=C/C(=O)NC(c2cccc(C(F)(F)F)c2)C(F)(F)F)cc1C(F)(F)F (stereo not drawn) [Ia-247]	100%	HPLC-MS: logP = 3.24; mass	–
CC(=O)NCc1ccc(/C=C/C(=O)NC(c2cccc(C(F)(F)F)c2)C(F)(F)F)cc1Cl (stereo not drawn) [Ia-248]	100%	HPLC-MS: logP = 3.06; mass	–
CC(C)C(=O)N(Cc1ccccn1)Cc1ccc(/C=C/C(=O)NC(c2cccc(C(F)(F)F)c2)C(F)(F)F)cc1F (stereo not drawn) [Ia-253]	100%	HPLC-MS: logP = 3.37; mass	–
CCN(C(=O)c1ccc(/C=C/C(=O)NC(c2cccc(C(F)(F)F)c2)C(F)(F)F)cc1C(F)(F)F)C1CC1 (stereo not drawn) [Ia-257]	100%	HPLC-MS: logP = 3.89; mass	–
O=C(/C=C/c1ccc(C(=O)N(Cc2cccnc2)C2CC2)c(C(F)(F)F)c1)NC(c1cccc(C(F)(F)F)c1)C(F)(F)F (stereo not drawn) [Ia-258]	100%	HPLC-MS: logP = 2.8; mass	–
Cc1ccnc(NC(=O)c2ccc(/C=C/C(=O)NC(c3cccc(C(F)(F)F)c3)C(F)(F)F)cc2C(F)(F)F)c1 (stereo not drawn) [Ia-259]	100%	HPLC-MS: logP = 3.61; mass	–
N#Cc1ccnc(NC(=O)c2ccc(/C=C/C(=O)NC(c3cccc(C(F)(F)F)c3)C(F)(F)F)cc2C(F)(F)F)c1 (stereo not drawn) [Ia-260]	100%	–	logP [2, 4]: HPLC-MS: logP = 3.61; mass
O=C(/C=C/c1ccc(CNc2cc(Cl)ccn2)c(C(F)(F)F)c1)NC(c1cccc(C(F)(F)F)c1)C(F)(F)F (stereo not drawn) [Ia-264]	100%	–	logP [2, 4]: HPLC-MS: logP = 4.28; mass
O=C(/C=C/c1ccc(CNC(=O)C2CCC2)c(C(F)(F)F)c1)NC(c1cccc(C(F)(F)F)c1)C(F)(F)F (stereo not drawn) [Ia-267]	100%	–	logP [2, 4]: HPLC-MS: logP = 3.9; mass
O=C(/C=C/c1ccc(CNS(=O)(=O)C2CC2)c(C(F)(F)F)c1)NC(c1cccc(C(F)(F)F)c1)C(F)(F)F (stereo not drawn) [Ia-271]	100%	–	logP [2, 4]: HPLC-MS: logP = 3.74; mass
CCC(=O)NCc1ccc(/C=C/C(=O)NC(c2ccc(F)c(C(F)(F)F)c2)C(F)(F)F)cc1C(F)(F)F (stereo not drawn) [Ia-272]	100%	–	logP [2, 4]: HPLC-MS: logP = 3.61; mass
CCC(=O)NC(C)c1ccc(/C=C/C(=O)NC(c2cccc(C(F)(F)F)c2)C(F)(F)F)cc1F (stereo not drawn) [Ia-273]	100%	–	logP [2, 4]: HPLC-MS: logP = 3.3; mass
CCC(=O)NC(C)c1ccc(/C=C/C(=O)NC(c2ccc(F)c(Cl)c2)C(F)(F)F)cc1F (stereo not drawn) [Ia-274]	100%	–	logP [2, 4]: HPLC-MS: logP = 3.23; mass
CCC(=O)NC(C)c1ccc(/C=C/C(=O)NC(c2ccc(F)c(C(F)(F)F)c2)C(F)(F)F)cc1F (stereo not drawn) [Ia-275]	100%	–	logP [2, 4]: HPLC-MS: logP = 3.38; mass
CN(C(=O)c1ccc(/C=C/C(=O)NC(c2ccc(F)c(C(F)(F)F)c2)C(F)(F)F)cc1C(F)(F)F)c1ccccn1 (stereo not drawn) [Ia-281]	100%	–	logP [2, 4]: HPLC-MS: logP = 3.63; mass
O=C(/C=C/c1ccc(C(=O)NC2CC2)c(C(F)(F)F)c1)NC(c1cccc(Br)c1)C(F)(F)F (stereo not drawn) [Ia-284]	100%	–	logP [2, 4]: HPLC-MS: logP = 3.35; mass
O=C(/C=C/c1ccc(C(=O)Nc2ccccn2)c(C(F)(F)F)c1)NC(c1cncc(C(F)(F)F)c1)C(F)(F)F (stereo not drawn) [Ib-2]	–	–	efficacy in % ([1]; application rate 500 g/ha): 83%; logP [2, 3]: HPLC-MS: logP = 3.02 mass (m/z):
N#Cc1ccc2[nH]c(C(=O)NC(c3cccc(C(F)(F)F)c3)C(F)(F)F)cc2c1 (stereo not drawn) [Ic-4]	–	–	efficacy in % ([1]; application rate 500 g/ha): 83%; logP [2, 3]: HPLC-MS: logP = 3.48; mass
O=C(/C=C/c1ccc2c(c1)CCC2NC(=O)CC1CC1)NC(c1cccc(C(F)(F)F)c1)C(F)(F)F (stereo not drawn) [Ie-2]	100%	–	logP [2, 3]: HPLC-MS: logP = 3.54; mass
